Measurements: patent publication US5880152A, “Butyrate prodrugs derived from lactic acid” (Vertex Pharmaceuticals, Inc., priority 1997, dated 1999)
Where two headings read alike, the source gives them in different places.

How the values were obtained:
[1] = test system: Cultured Erythroleukemic Cells; conditions: in vitro; cited from earlier work
[2] = test system: leukemia; conditions: cited from earlier work
[3] = test system: pancreatic cancel cells; conditions: pancreatic cancer cells; cited from earlier work
[4] = test system: colorectal carcinoma cell lines; conditions: cited from earlier work
[5] = test system: retinoblastoma cell lines; conditions: cited from earlier work
[6] = test system: urokinase plasminogen activator and its receptor mRNA; conditions: colon cancer cell lines; cited from earlier work
[7] = test system: fetal hemoglobin; conditions: sickle cell anemia patients; cited from earlier work
[8] = test system: γ globin chain; experiment: Efficacy study in anemic rhesus monkeys: % γ globin chain (HPLC); type: in vivo, rhesus monkey (anemic)
Experimental: (§1) Fetal hemoglobin cells (F cells), Hemoglobin F level in total Hemoglobin (% Hb F) and % γ globin chain levels were monitored before and after each of the two phases. % F cells were measured according to the protocol described in Betke et al, Blut., 4, pp. 241-9 (1958). % Hb F and % γ globin chain synthesis were measured using High Performance Liquid Chromatography (HPLC) according to the protocol described in Huisman, J. Chromagtogr., 418, pp. 277 (1987)

[9] = in vivo; cited from earlier work
[10] = rhesus monkey, in vivo
[11] = test system: Hemoglobin F; experiment: Efficacy study in anemic rhesus monkeys: % Hb F (HPLC); type: in vivo, rhesus monkey (anemic)
Experimental: as §1

[12] = test system: Fetal hemoglobin cells (F cells); experiment: Efficacy study in anemic rhesus monkeys: % F cells; type: in vivo, rhesus monkey (anemic)
Experimental: Each group was studied in two phases, as shown below.
Phase I of the efficacy study.
I 2 Hydroxyurea 50 mg/kg/day
Phase II of the efficacy study.

[13] = Triglycerides and ALT in the efficacy study; conditions: three groups, prior to or during the two phases
[14] = test system: tumor, leukemia; conditions: mice; cited from earlier work

CCCC(=O)O [butyric acid]
cell differentiation [1]: induces cell differentiation | effect in leukemia patients, by inducing cell differentiation [2]: promising effects

CCCC(=O)[O-].[Na+] [Sodium butyrate]
antigen expression [3]: modify antigen expression | apoptosis [4]: induce apoptosis | apoptosis [5]: induce apoptosis | urokinase plasminogen activator and its receptor mRNA expression [6]: inhibit

NC(=O)NO [Hydroxyurea, hydroxyurea]
fetal hemoglobin production [7]: stimulates fetal hemoglobin production | sickling crisis [7]: reduces sickling crisis | change in % γ-globin chain levels ([8]; Group I): measurable increase | toxicity [9]: potentially limited by myelotoxicity and the risk of carcinogenesis | levels of ALT [10]: no detectable difference | levels of the triglycerides [10]: no detectable difference | change in % Hb F ([11]; Group I): measurable increase | % F cell count ([12]; animal 1, group I, end of Phase I (hydroxyurea 50 mg/kg/day, 5 weeks), before Phase I 8-10): 25%

CCCC(=O)O[C@@H](C)C(=O)OCC [Compound IIIc]
change in γ-globin chain levels ([8]; Groups II and III): no measurable change | levels of ALT [13]: no detectable difference | levels of the triglycerides [13]: no detectable difference | change in HbF ([11]; Groups II and III): no measurable change | change in % F cells ([12]; Groups II and III): small but significant increase

CCCC(=O)O [arginine butyrate]
anti-tumor and anti-leukemia effects [14]: exert anti-tumor and anti-leukemia effects in mice
